According to patent publication US20090076032A1, “Derivatives of 18Beta-Glycyrrhetinic Acid” (priority 2006, published 2009):
Read-outs that look alike come from different tables or passages of the source.

Columns and labels:
[1] = test system: normal human keratinocytes (NHEKa); type: cell-based; details: 24 hours
Method: The cells used were normal human keratinocytes (NHEKa). All cells were cultured in T75 flasks according to the supplier's guidelines for maintenance of stocks. Frozen stocks of cells that had gone through two passages were seeded into T25 flasks at a seeding density of 2.5×10^3 cells per cm^2. The cells were then left to grow over 5 days with media changes being carried out every two days.
Cell culture treatment media were prepared for all the test compounds at four concentrations, namely 1 μM, 2.5 μM, 5 μM and 10 μM (final concentration). Control treatments on cells of normal media (no treatment) and DMSO were also carried out.
All treatment media were sterilised by filtration and added to the T25 flasks after removal of spent media. The cells were then incubated at 37° C. for 24 hours. The treatment media were removed from the T25 flasks and the cells washed with 5 ml of PBS before 1 ml of Trypsin/EDTA (TE) (Cascade, Mansfield, UK) solution was added to the flaks and left for approximately 8-10 minutes for the cells to lift off the growth surface. The trypsin was neutralised with 3 ml Trypsin Neutraliser (TN) (Cascade). The cells were then harvested and transferred to a separate 15 ml centrifuge tube for each treatment regime. The cells were spun at 180×g for 7 minutes and the medium was removed.
The cells were resuspended in 1 ml of ice cold PBS before being transferred to a microcentrifuge tube and spun at 200×g for 2 minutes. The PBS was removed and the cells were resuspended in 100 μl of binding buffer (10 mM Hepes, 140 mM NaCl, 2.5 mM CaCl2, pH 7.4) before the addition of 5 μl of a propidium iodide (PI) staining solution (BD Biosciences, Cowley, UK). The cells were incubated at 20° C. for 5 minutes before the addition of 300 μl of binding buffer followed by immediate analysis by flow cytometry. Cells taking up the PI stain were dead, cells not staining with PI were viable. The level of staining within the cells could be viewed by flow cytometry.
This type of analysis takes account of the natural variability in the growth and survival of different batches of cells. Data presented are from three repeats +SEM.

[2] = test system: Normal human keratinocyte (NHEKa) cells; assay: NHEKa cell proliferation assay (ATP levels, CellTitre-Glo), example 11; type: cell-based
Method: Normal human keratinocyte (NHEKa) cells were cultured in the presence and absence of set concentrations of the five 18β-glycyrrhetinic acid derivatives, in multi-well assay plates (96), over a five-day period. The cells, seeded at a density of 5,000 or 2,500 cells per well, were cultured in keratinocyte growth medium (KGM) (Cascade Biologics), to which retinol and various concentrations of the 18β-glycyrrhetinic acid derivatives dissolved in KGM and DMSO were added. Control treatments included KGM only, KGM and retinol, and KGM and DMSO.
After the five-day period, cell proliferation was determined by assay of ATP levels (directly associated with cell density) using a commercially available kit (CellTitre-Glo, Promega). In the presence of suitable controls, reduced proliferation (cell growth measured by ATP generation) indicates an anti-proliferative effect of a given 18β-glycyrrhetinic acid derivative.

NHEKa cells = assay: NHEKa cell viability/proliferation assay, amended plate design (ATP luminescence), example 12; details: retinol 500 nM; for luminescence compared to the controls: 2.5 μM inhibitor
Method: To obtain a direct comparison of each inhibitor compared with carbenoxolone, the design of the assay was amended, so that each plate contained a range of different inhibitors at the same concentration compared to carbenoxolone. This removed inter-plate variation when comparing inhibitors used at the same concentration.
The medium (200 μl in each well) was replaced after 24 and 72 hours of growth with fresh pre-warmed medium containing retinol (500 nM final concentration) and the indicated inhibitor, consequently the length of treatment was 72 hours.

[3] = target: T1, recombinant human retinol dehydrogenase enzyme 2 (hRoDH-E2) (Homo sapiens, UniProt Q9BPW9); assay: Spectrometric hRoDH-E2 activity assay (retinal generation at 400 nm); type: biochemical; details: E. coli RIL (+hRoDH-E2) SS, 15.625-250 μM, 2.5% DMSO, 125 μM retinol
T1 construct: host or cells: E. coli RIL
Method: A reaction mix was prepared, consisting of a buffered solution containing excess retinol (10 mM HEPES, 150 mM KCl, 2 mM EDTA, pH 8.0; 0.02% Tween 80; 125 μM retinol). Preliminary experiments concluded that sufficient cofactor was present in the crude enzyme source, therefore, this was not supplemented into the reaction buffer. The enzyme source was provided by the BioCatalysis Centre, University of Exeter, as a crude sonicated supernatant (SS) from harvested E. coli RIL cells transfected with the hRoDH-E2 expression vector. […] The reaction, initiated by the addition of enzyme (accounting for 5% total reaction volume), was monitored at 400 nm to measure the generation of retinal from retinol. The rate of retinal generation was determined as the change in milli-absorbance units per minute (mAbs/min).
Multi-well assay plates (96) were preloaded with DMSO (2.5% final reaction volume), containing inhibitor where required. […] The contents of each well were mixed by aspiration and the plate loaded into a multi-well plate reader set at 37° C. The generation of retinal was monitored at 400 nm over 30 minutes, during which time the reaction reached maximum velocity under uninhibited conditions after 600 seconds and began to decelerate after 1200 seconds in each case tested. […]

[4] = all four concentrations (1, 2.5, 5 and 10 μM)

T1 sequence (Q9BPW9 18-319): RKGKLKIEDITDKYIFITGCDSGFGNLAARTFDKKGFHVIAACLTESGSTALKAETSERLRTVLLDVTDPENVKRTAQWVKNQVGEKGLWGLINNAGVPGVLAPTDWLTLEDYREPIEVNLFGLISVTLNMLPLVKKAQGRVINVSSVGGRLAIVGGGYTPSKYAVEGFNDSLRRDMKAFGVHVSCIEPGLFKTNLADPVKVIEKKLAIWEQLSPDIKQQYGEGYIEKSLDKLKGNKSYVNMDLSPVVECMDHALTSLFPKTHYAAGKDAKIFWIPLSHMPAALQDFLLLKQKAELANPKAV

In the case of `CC1(C)[C@@H](OC(=O)[C@@H]2CCCC[C@@H]2C(=O)O)CC[C@]2(C)[C@H]3C(=O)C=C4[C@@H]5C[C@@](C)(C(=O)O)CC[C@]5(C)CC[C@@]4(C)[C@]3(C)CC[C@@H]12` (mixture of isomers) [YP024, cis-Cyclohexane-1,2-dicarboxylic acid mono-((3S,4aR,6aR,6bS,8aS,11S, 12aR,14aR,14bS)-11-carboxy-4,4,6a,6b,8a,11,14b-heptamethyl-14-oxo-1,2,3,4,4a,5,6,6a,6b, 7,8,8a,9,10,11,12, 12a, 14, 14a, 14b-icosahydro-picen-3-yl) ester], the “viability of NHEKa cells (proportion of viable cells referenced to DMSO)” value (from here on “viability of NHEKa cells”) [1, 4] is reported as “slight increase in viability”.
For `COC(=O)[C@@]1(C)CC[C@]2(C)CCC3(C)C(=CC(=O)C4[C@@]5(C)CC[C@H](OC(=O)c6ccccc6C(=O)O)C(C)(C)C5CC[C@]43C)[C@@H]2C1` (stereo in doubt) [YP015, Phthalic acid mono-(11-methoxycarbonyl-4,4,6a,6b,8a,11,14b-heptamethyl-14-oxo-1,2,3,4,4a,5,6,6a,6b,7,8,8a,9, 10,11,12,12a, 14,14a, 14b-icosahydro-picen-3-yl) ester], the “viability of NHEKa cells” value [1, 4] was “no decrease in viability” and the “anti-proliferative properties compared with carbenoxolone sodium” value ([2]; at equal concentrations) was “more potent”.
For `CC(=O)CC(=O)OC1CCC2(C)C(CCC3(C)C2C(=O)C=C2C4CC(C)(C(=O)O)CCC4(C)CCC23C)C1(C)C` (stereo not shown) [YP016, 2,4a,6a,6b,9,9,12a-Heptamethyl-13-oxo-10-(3-oxo-butyryloxy)-1,2,3,4,4a,5,6,6a,6b, 7,8,8a,9,10,11,12, 12a,12b,13,14b-icosahydro-picene-2-carboxylic acid], the “viability of NHEKa cells” value [1, 4] was “no decrease in viability”.
With `CC(C)(CC(=O)O[C@H]1CC[C@]2(C)[C@H]3C(=O)C=C4[C@@H]5C[C@@](C)(C(=O)O)CC[C@]5(C)CC[C@@]4(C)[C@]3(C)CC[C@H]2C1(C)C)C(=O)O` [YP022, 2,2-Dimethyl-succinic acid 4-((3S,4aR,6aR,6bS,8aS,11S,12aR,14aR,14bS)-11-carboxy-4,4,6a,6b,8a,11,14b-heptamethyl-14-oxo-1,2,3,4,4a,5,6,6a,6b,7,8,8a,9,10,11,12, 12a,14,14a, 14b-icosahydro-picen-3-yl) ester] the “luminescence compared to the controls” value (NHEKa cells) was “significantly less luminescence”.
`CC1(C)[C@@H](OC(=O)C2=C(C(=O)O)CCC2)CC[C@]2(C)[C@H]3C(=O)C=C4[C@@H]5C[C@@](C)(C(=O)O)CC[C@]5(C)CC[C@@]4(C)[C@]3(C)CC[C@@H]12` [YP026, Cyclopent-1-ene-1,2-dicarboxylic acid mono-((3S,4aR,6aR,6bS,8aS,11S,12aR, 14aR,14bS)-11-carboxy-4,4,6a,6b,8a,11,14b-heptamethyl-14-oxo-1,2,3,4,4a,5,6,6a,6b,7,8,8a,9,10,11,12,12a,14,14a, 14b-icosahydro-picen-3-yl) ester] was tested, and the “viability of NHEKa cells” value [1, 4] was “slight increase in viability” and the “luminescence compared to the controls” value (NHEKa cells) was “significantly less luminescence”.
For `CC1(C)[C@@H](OC(=O)CCC(=O)O)CC[C@]2(C)[C@H]3C(=O)C=C4[C@@H]5C[C@@](C)(C(=O)O)CC[C@]5(C)CC[C@@]4(C)[C@]3(C)CC[C@@H]12` [carbenoxolone sodium, reference compound], the “effect on NHEKa cell proliferation (ATP levels compared to the controls)” value ([2]; five-day culture, with retinol, various concentrations) was “suppresses NHEKa cell proliferation”.
In the case of `CC1(C)[C@@H](OC(=O)CCC(=O)O)CC[C@]2(C)[C@H]3C(=O)C=C4[C@@H]5C[C@@](C)(C(=O)O)CC[C@]5(C)CC[C@@]4(C)[C@]3(C)CC[C@@H]12` [carbenoxolone, reference compound], the “viability of NHEKa cells” value ([1]; 1 μM and 2.5 μM) is reported as “slight decrease in viability”, the “inhibition of recombinant hRoDH-E2 activity (generation of retinal from retinol)” value [3] is reported as “reduce the generation of retinal from retinol” and the “luminescence compared to the controls” value (NHEKa cells) is reported as “significantly less luminescence”. The “luminescence detected compared to the untreated control” value (NHEKa cells; 5.0 μM inhibitor) was 41%.
For “trans-Cyclohexane-1,2-dicarboxylic acid mono-((3S,4aR,6aR,6bS,8aS,11S, 12aR,14aR,14bS)-11-carboxy-4,4,6a,6b,8a,11,14b-heptamethyl-14-oxo-1,2,3,4,4a,5,6,6a,6b, 7,8,8a,9,10,11,12,12a,14,14a, 14b-icosahydro-picen-3-yl) ester [YP023]”, the “viability of NHEKa cells” value [1, 4] was “slight increase in viability”.
